Tests used:
Type in all cases: biochemical
[1] = molecular target: PKC theta kinase (Homo sapiens, UniProt Q04759); assay: PKC theta kinase inhibition, coupled-enzyme (NADH absorbance) assay, Ki; conditions: 240 μM ATP, 18 nM PKC theta kinase, 30° C.
In short: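 Enzyme and compound equilibrated 10 min at 30 °C before reaction in HEPES pH 7.5 buffer with MgCl2, NaCl, EDTA and Brij. Activity tracked as NADH loss at 340 nm through a coupled system. Initial-rate data fitted by non-linear regression to give Ki.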

[2] = molecular target: PKC alpha kinase (Homo sapiens, UniProt P17252); assay: PKC alpha kinase inhibition, coupled-enzyme (NADH absorbance) assay, Ki; conditions: 130 μM ATP, 4.5 nM PKC alpha kinase, 30° C.
In short: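 Ki derived by non-linear regression of initial rates from a coupled assay tracking NADH absorbance at 340 nm over 15 min at 30 °C. ATP was 130 μM final after a 10 min compound–enzyme preincubation in HEPES pH 7.5 buffer with MgCl2, CaCl2, NaCl, EDTA and Brij.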

[3] = molecular target: PKC delta kinase (Homo sapiens, UniProt Q05655); assay: PKC delta kinase inhibition, coupled-enzyme (NADH absorbance) assay, Ki; conditions: 150 μM ATP, 46 nM PKC delta kinase, 30° C.; read-out: Ki PKC delta
PKC delta kinase, sequence (Q05655 whole entry): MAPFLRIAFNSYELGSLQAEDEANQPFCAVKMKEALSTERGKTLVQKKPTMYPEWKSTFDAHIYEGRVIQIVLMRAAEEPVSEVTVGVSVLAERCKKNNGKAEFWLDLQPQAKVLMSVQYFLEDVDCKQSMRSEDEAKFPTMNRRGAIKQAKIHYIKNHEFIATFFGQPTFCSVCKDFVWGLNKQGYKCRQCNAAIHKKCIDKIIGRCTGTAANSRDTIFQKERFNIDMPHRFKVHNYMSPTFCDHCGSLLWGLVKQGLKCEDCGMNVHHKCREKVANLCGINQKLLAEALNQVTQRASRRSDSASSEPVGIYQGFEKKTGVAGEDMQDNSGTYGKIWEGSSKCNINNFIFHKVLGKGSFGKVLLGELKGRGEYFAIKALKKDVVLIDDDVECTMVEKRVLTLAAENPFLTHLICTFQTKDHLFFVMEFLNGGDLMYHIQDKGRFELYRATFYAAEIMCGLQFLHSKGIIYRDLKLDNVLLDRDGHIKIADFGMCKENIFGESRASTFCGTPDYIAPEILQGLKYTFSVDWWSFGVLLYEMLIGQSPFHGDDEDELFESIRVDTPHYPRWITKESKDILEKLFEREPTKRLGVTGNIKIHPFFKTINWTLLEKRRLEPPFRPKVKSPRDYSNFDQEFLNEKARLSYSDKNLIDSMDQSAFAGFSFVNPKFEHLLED
In short: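 Enzyme and compound pre-equilibrated 10 min at 30° C before adding ATP to 150 μM final. Buffer: HEPES pH 7.5 (100 mM), 10 mM MgCl2, 25 mM NaCl, 0.1 mM EDTA, 0.01% Brij.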

PKC theta kinase, sequence (Q04759 whole entry): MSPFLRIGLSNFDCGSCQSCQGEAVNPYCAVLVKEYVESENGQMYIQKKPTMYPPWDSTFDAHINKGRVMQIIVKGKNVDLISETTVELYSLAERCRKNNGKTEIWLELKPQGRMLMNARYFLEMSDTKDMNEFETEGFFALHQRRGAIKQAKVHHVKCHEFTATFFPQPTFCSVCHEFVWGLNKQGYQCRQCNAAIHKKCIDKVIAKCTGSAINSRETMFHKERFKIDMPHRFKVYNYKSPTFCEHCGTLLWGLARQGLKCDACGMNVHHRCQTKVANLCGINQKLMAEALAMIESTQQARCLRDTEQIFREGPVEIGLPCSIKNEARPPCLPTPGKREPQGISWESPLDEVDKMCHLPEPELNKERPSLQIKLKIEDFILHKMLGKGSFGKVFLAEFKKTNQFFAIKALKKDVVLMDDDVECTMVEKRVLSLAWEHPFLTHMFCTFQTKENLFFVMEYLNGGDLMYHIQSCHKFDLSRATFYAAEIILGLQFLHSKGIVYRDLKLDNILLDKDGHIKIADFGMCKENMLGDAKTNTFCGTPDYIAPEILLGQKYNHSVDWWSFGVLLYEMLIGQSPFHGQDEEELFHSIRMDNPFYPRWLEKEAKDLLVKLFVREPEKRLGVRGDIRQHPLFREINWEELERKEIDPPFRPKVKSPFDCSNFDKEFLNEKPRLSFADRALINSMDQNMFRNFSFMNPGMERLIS

Structure (SMILES) | Ki [1] [nM] | Ki [2] [nM] | Ki [3] [nM]
CC(C)C[C@@]1(O)CN(c2ccc(F)c(-c3n[nH]c4ncccc34)n2)CC[C@@H]1N [Compound 269] | < 50 | < 500 | < 500
CC(C)C(N)[C@H]1CCCN(c2ccc(F)c(-c3n[nH]c4ncccc34)n2)C1 (stereo partly drawn) [Compound 270] | < 50 | > 1250 | > 1250
C[C@](O)(c1ccccc1)[C@@H]1CN(c2ccc(F)c(-c3n[nH]c4ncccc34)n2)CCN1 [Compound 274] | < 500 | > 1250 | > 1250
CC(C)C(C)(O)[C@H]1CCCN(c2ccc(F)c(-c3n[nH]c4ncccc34)n2)C1 (stereo partly drawn) [Compound 277] | < 500 | > 1250 | > 1250
CC(F)(F)C(C)(O)C1CN(c2ccc(F)c(-c3n[nH]c4ncccc34)n2)CCN1 (stereo not drawn) [Compound 282] | < 50 | > 1250 | < 2800
CC(F)(F)C(C)(O)C1CN(c2ccc(F)c(-c3n[nH]c4ncccc34)n2)CCN1 (stereo not drawn) [Compound 283] | < 1 | < 2800 | < 50
CC(C)CC1(N)CCCN(c2ccc(F)c(-c3n[nH]c4ncccc34)n2)C1 (stereo not drawn) [Compound 284] | < 500 | > 1250 | > 1250
CC(C)CC1(N)CCCN(c2ccc(C(F)(F)F)c(-c3n[nH]c4ncccc34)n2)C1 (stereo not drawn) [Compound 285] | < 500 | > 1250 | > 1250
CC(F)(F)C(C)(O)C1CN(c2ccc(F)c(-c3n[nH]c4ncccc34)n2)CCN1 (stereo not drawn) [Compound 286] | < 50 | > 1250 | < 500
CC(F)(F)C(C)(O)C1CN(c2ccc(F)c(-c3n[nH]c4ncccc34)n2)CCN1 (stereo not drawn) [Compound 287] | < 1 | < 2800 | < 10
CC1(C)CC1(O)C1CN(c2ccc(F)c(-c3n[nH]c4ncccc34)n2)CCN1 (stereo not drawn) [Compound 288] | < 1 | > 1250 | < 500
CC(C)C(C)(N)C1CCCN(c2ccc(F)c(-c3n[nH]c4ncccc34)n2)C1 (stereo not drawn) [Compound 292] | < 500 | > 1250 | < 2800
CC(C)CC1(CO)CN(c2ccc(F)c(-c3n[nH]c4ncccc34)n2)CCC1N (stereo not drawn) [Compound 293] | < 50 | < 500 | < 50
CC(C)CC1(O)CCCN(c2ccc(F)c(-c3n[nH]c4ncccc34)n2)C1 (stereo not drawn) [Compound 295] | < 2800 | > 1250 | > 1250

Other lines, results leading:

Ki [1] [nM] | Ki [2] [nM] | Ki [3] [nM] | Structure (SMILES)
> 700 | > 1250 | > 1250 | Fc1ccc(N2CCC(C(F)(F)F)CC2)nc1-c1n[nH]c2ncccc12 [Compound 268]
> 700 | > 1250 | > 1250 | N#CC1CCN(c2ccc(F)c(-c3n[nH]c4ncccc34)n2)CC1 [Compound 275]
< 500 | > 1250 | > 1250 | CC(C)C(O)[C@@H]1CCCN(c2ccc(F)c(-c3n[nH]c4ncccc34)n2)C1 (stereo partly drawn) [Compound 278]
< 50 | < 2800 | < 500 | CC(C)C(N)C1CCCN(c2ccc(F)c(-c3n[nH]c4ncccc34)n2)C1 (stereo not drawn) [Compound 280]
< 50 | > 1250 | > 1250 | CC(C)C(N)[C@@H]1CCCN(c2ccc(F)c(-c3n[nH]c4ncccc34)n2)C1 (stereo partly drawn) [Compound 281]
< 500 | > 1250 | > 1250 | NCC1CCN(c2ccc(F)c(-c3n[nH]c4ncccc34)n2)C1 (stereo not drawn) [Compound 289]
< 500 | > 1250 | > 1250 | Fc1ccc(N2CCN3CCCC3C2)nc1-c1n[nH]c2ncccc12 (stereo not drawn) [Compound 290]
< 50 | < 2800 | < 500 | CCC(N)C1CCCN(c2ccc(F)c(-c3n[nH]c4ncccc34)n2)C1 (stereo not drawn) [Compound 291]
< 500 | > 1250 | > 1250 | NC1CCCN(c2ccc(F)c(-c3n[nH]c4ncccc34)n2)C1 (stereo not drawn) [Compound 294]
< 500 | > 1250 | < 2800 | NCC1CN(c2ccc(F)c(-c3n[nH]c4ncccc34)n2)CCC1O (stereo not drawn) [Compound 296]
